Experiments:
[1] = system: rabbit serum obtained by immunizing a rabbit with the SARS-CoV strain Frankfurt 1; format: binding; parameters: Binding of a rabbit serum to linear peptides / Binding of a rabbit serum to looped peptides / Rabbit serum linear peptides / Rabbit serum looped peptides / Binding of a rabbit serum to linear peptides of protein N of SARS-CoV Urbani (Rabbit serum linear peptides) / Binding of a rabbit serum to looped/cyclic peptides of protein N of SARS-CoV Urbani (Rabbit serum looped peptides): unit not given here
[2] = system: control sera (pooled serum of ten healthy LUMC hospital workers; commercial negative donor pooled serum from the Dutch bloodbank); format: binding, human; parameters: Binding of Control serum LUMC to linear peptides / Binding of Control serum Blood-bank to linear peptides / Binding of Control serum LUMC to looped peptides / Binding of Control Serum Blood-Bank to Looped peptides / Binding of Control serum LUMC to linear peptides of the protein M of SARS-CoV Urbani / Binding of Control serum Blood-bank to linear peptides of the protein M of SARS-CoV Urbani / Binding of Control serum LUMC to looped peptides of the protein M of SARS-CoV Urbani / Binding of Control Serum Blood-Bank to Looped peptides of the protein M of SARS-CoV Urbani: unit not given here

Row | Sequence | Rabbit serum linear peptides [1] | Rabbit serum looped peptides [1] | Binding of Control Serum Blood-Bank to Looped peptides of the protein M of SARS-CoV Urbani [2] | Binding of Control serum Blood-bank to linear peptides of the protein M of SARS-CoV Urbani [2] | Binding of Control serum LUMC to linear peptides of the protein M of SARS-CoV Urbani [2] | Binding of Control serum LUMC to looped peptides of the protein M of SARS-CoV Urbani [2] | Binding of a rabbit serum to linear peptides [1] | Binding of a rabbit serum to looped peptides [1] | Binding of Control Serum Blood-Bank to Looped peptides [2] | Binding of Control serum Blood-bank to linear peptides [2] | Binding of Control serum LUMC to linear peptides [2] | Binding of Control serum LUMC to looped peptides [2] | Binding of Control Serum Blood-Bank to Looped peptides of the protein X3 of SARS-CoV Urbani [2] | Binding of Control serum Blood-bank to linear peptides of the protein X3 of SARS-CoV Urbani [2] | Binding of Control serum LUMC to linear peptides of the protein X3 of SARS-CoV Urbani [2] | Binding of Control serum LUMC to looped peptides of the protein X3 of SARS-CoV Urbani [2] | Recognition of the peptide by the rabbit serum [1]
1 | LGRCDIKDLPKEITV | 0.1 | 0.6 | 0.8 | 0.7 | 0.5 | 0.8 |  |  |  |  |  |  |  |  |  |  | 
2 | KTMSLYMAISPKFTT |  |  |  |  |  |  | 0.3 | 0.8 | 0.7 | 0.7 | 0.6 | 1.0 |  |  |  |  | 
3 | VKNLNSSEGVPDLLV |  |  |  |  |  |  | 0.3 | 0.6 | 0.8 | 0.7 | 1.1 | 0.9 |  |  |  |  | 
4 | NYKLNTDHAGSNDNI | 0.5 | 0.0 | 0.6 | 0.7 | 0.5 | 0.8 |  |  |  |  |  |  |  |  |  |  | 
5 | YDYCIPYNSVTDTIV |  |  |  |  |  |  | 0.1 | 0.5 | 0.5 | 0.6 | 0.7 | 0.6 |  |  |  |  | 
6 | IMRTFRIAIWNLDVI | 0.4 | 0.6 |  |  |  |  |  |  |  |  |  |  | 0.9 | 0.8 | 0.8 | 0.8 | 
7 | QDPAGGALIARCWYL | 0.5 | 0.9 |  |  |  |  |  |  | 0.8 | 0.7 | 0.3 | 0.6 |  |  |  |  | 
8 | NSKKTTKLVVILRIG |  |  |  |  |  |  |  |  | 0.7 | 0.4 | 0.9 | 0.7 |  |  |  |  | recognized
9 | YSELDDEEPMELDYP | 0.3 | 0.3 |  |  |  |  |  |  |  |  |  |  | 0.8 | 0.7 | 0.9 | 0.8 | 
10 | CNIVNVSLVKPTVYV |  |  |  |  |  |  | 0.1 | 0.5 | 0.6 | 0.7 | 0.8 | 0.8 |  |  |  |  | 
11 | CAYCCNIVNVSLVKP |  |  |  |  |  |  | 0.6 | 0.2 | 0.9 | 1.1 | 0.7 | 0.7 |  |  |  |  | 
12 | LIIIMRTFRIAIWNL | 0.5 | 0.3 |  |  |  |  |  |  |  |  |  |  | 0.6 | 0.7 | 0.6 | 0.7 | 
13 | AEILIIIMRTFRIAI | 0.3 | 0.0 |  |  |  |  |  |  |  |  |  |  | 0.7 | 0.7 | 0.4 | 0.8 | 
14 | HQTAAFRDVLVVLNK | 0.4 | 0.8 |  |  |  |  |  |  | 0.8 | 0.5 | 0.9 | 0.6 |  |  |  |  | 
15 | IIIMRTFRIAIWNLD | 0.4 | 0.5 |  |  |  |  |  |  |  |  |  |  | 0.8 | 0.9 | 0.9 | 0.8 | 
16 | IGTQVLKTMSLYMAI |  |  |  |  |  |  | 0.1 | 0.4 | 0.9 | 0.8 | 0.5 | 1.0 |  |  |  |  | 
17 | KPLTKKNYSELDDEE | 0.4 | 0.5 |  |  |  |  |  |  |  |  |  |  | 0.8 | 0.7 | 0.8 | 0.7 | 
18 | PLTKKNYSELDDEEP | 0.2 | 0.4 |  |  |  |  |  |  |  |  |  |  | 0.8 | 0.8 | 0.9 | 0.8 | 
19 | YCIPYNSVTDTIVVT |  |  |  |  |  |  | 0.1 | 0.5 | 0.7 | 0.8 | 0.7 | 0.7 |  |  |  |  | 
20 | IAIAMACIVGLMWLS | 0.1 | 0.3 | 0.8 | 0.5 | 0.6 | 0.7 |  |  |  |  |  |  |  |  |  |  | 
21 | TGGIAIAMACIVGLM | 0.5 | 0.3 | 1.1 | 1.1 | 0.6 | 1.1 |  |  |  |  |  |  |  |  |  |  | 
22 | RQLFKPLTKKNYSEL | 0.3 | 0.5 |  |  |  |  |  |  |  |  |  |  | 0.9 | 0.9 | 0.8 | 0.7 | 
23 | EDRHSGVKDYVVVHG |  |  |  |  |  |  | 0.1 | 0.3 | 1.1 | 0.9 | 0.9 | 0.7 |  |  |  |  | 
24 | YQECVRGTTVLLKEP | 0.5 | 0.5 |  |  |  |  |  |  | 0.9 | 0.8 | 0.7 | 0.8 |  |  |  |  | 
25 | PSGTYEGNSPFHPLA | 0.5 | 0.5 |  |  |  |  |  |  | 0.8 | 0.9 | 0.7 | 0.9 |  |  |  |  | 
26 | VANPAMDPIYDEPTT |  |  |  |  |  |  | 0.1 | 0.5 | 0.5 | 0.4 | 0.2 | 0.5 |  |  |  |  | 
27 | ISSIVRQLFKPLTKK | 0.3 | 0.5 |  |  |  |  |  |  |  |  |  |  | 0.8 | 0.8 | 0.9 | 0.7 | 
28 | VIISSIVRQLFKPLT | 0.5 | 0.3 |  |  |  |  |  |  |  |  |  |  | 0.7 | 0.8 | 0.7 | 0.8 | 
29 | TQVLKTMSLYMAISP |  |  |  |  |  |  | 0.1 | 0.4 | 0.7 | 0.7 | 0.7 | 0.8 |  |  |  |  | 
30 | RHSGVKDYVVVHGYF |  |  |  |  |  |  | 0.1 | 0.4 | 0.7 | 0.6 | 0.5 | 0.6 |  |  |  |  | 

From patent publication US20070128217A1 (priority 2003, published 2007)
